Drawing on the OPERA property sets (Mansouri et al. 2018), this text covers logP for 87 compounds.

Where a SMILES comes first, the peptide text is derived from it.

What is called logP is a log measure of how a compound divides between an organic and an aqueous phase.

In the case of `NC(Cc1ccccc1)C(=O)NC(Cc1ccc(O)cc1)C(=O)O` (stereo not drawn) (H-Phe-Tyr-OH; configuration not given here), the log partition coefficient (logP) was -1.68. As for `CCCCCCOc1ccc(CC(=O)O)cc1OC`, the logP is 3.3. Under `CN1CCCNCC1` stands -0.4; under `CC(C)(Cc1c[nH]c2ccccc12)NCC(O)CON=C(C1CC1)C1CC1` (configuration not stated), 3.29. Compound `O=C1C=C(N2CCOCC2)CN1c1ccc(F)c(Cl)c1` yielded a log partition coefficient (logP) of 2.2. `COc1ccc(C2=NC(C(=O)O)CS2)c(O)c1` (configuration not stated) came in with a logP of 1.5. Under `CON(C)C(=O)Nc1ccc(C2CCCCC2)cc1` stands 4.08; under `CNc1ccncc1S(=O)(=O)NC(=NC#N)NC(C)C`, -0.65. As for `CCc1ccccc1CNc1[nH]cnc2ncnc1-2`, the figure is 2.92. As for `NC(Cc1ccccc1)C(=O)NC(Cc1ccccc1)C(=O)NC(Cc1ccccc1)C(=O)O` (stereo not drawn) (H-Phe-Phe-Phe-OH; configuration not given here), the figure is -0.02. The compound `CON(C)C(=O)Nc1cccc(C#N)c1` registered a logP of 1.33. The compound `CCC(C)C(NC(=O)C(N)CC(C)C)C(=O)NC(C(=O)NCC(=O)NC(C)C(=O)O)C(C)CC` (configuration not stated) (H-LIIGA-OH; configuration not given here) showed a logP of -1.65. For the compound `COc1cc(Cl)cc(Cl)c1O`, the logP came out at 2.86. In turn, `CCOc1cc2ncnc(Nc3ccc(F)cc3)c2cc1OCC` registered a logP of 3.73. As for `C=CCc1c(OC)cc(Cc2cnc(N)nc2N)cc1OCC`, the figure is 2.66; as for `CCCc1c(C)nc2cccc(C)n2c1=O`, 2.22. On to `O=C(O)Cc1ccccc1Nc1cc(Cl)cc(Cl)c1`, for which the logP was 5.07. Under `CC(C)OC(=O)C1(S(=O)(=O)c2ccc(Cl)cc2)CCCCC1` stands 3.49; under `c1[nH]nc2c1CCC1c3n[nH]cc3CCC21` (configuration not stated), 0.3; under `O=S(CCl)c1ccccc1` (configuration not stated), 1.47. Compound `COc1ccc(-n2nnnc2N)cc1` yielded a logP of 0.85. `COc1ccc2c(c1)OCN(CCO[N+](=O)[O-])C2=O` returned a logP of 2.09. Under `Cc1ccc(C(=O)O)cc1[N+](=O)[O-]` stands 2.35; under `CC(N)C(=O)NC(Cc1c[nH]c2ccccc12)C(=O)O` (configuration not stated), -2.21. As for `CCOc1ccccc1NC(=O)OC1C(CN(CC)CC)C2CCC1(C)C2(C)C` (configuration not stated), the figure is 5.8. Under `C=CC(=O)OC1CCCCC1` stands 2.8. The compound `O=[N+]([O-])c1nccn1CC(O)COCF` (configuration not stated) came in with a logP of -0.4. As for `CCN(CC)c1ccc(-n2c(C(F)(F)F)nn(C)c2=S)cc1`, the figure is 3.79. As for `CN1CCN(CCn2nnc3ccccc32)CC1`, the figure is 0.36.

For the compound `C#C[C@]1(O)CC[C@H]2[C@@H]3CCC4=CC(=O)CC[C@@H]4[C@H]3C(=C)C[C@@]21CC`, the logP came out at 3.16. Under `Cc1c(O)c(=O)ccn1CCCOC(=O)c1ccccc1O` stands 1.4; under `NC(Cc1ccccc1)C(=O)N1CCCC1C(=O)O` (stereo not drawn) (H-Phe-Pro-OH; configuration not given here), -1.23; under `CCOP(=O)(OCC)C(C)(C)[N+]([O-])=Cc1c(OC)cc(OC)cc1OC`, 1.03.

Turning to `CCCCCCCOc1ccccc1NC(=O)OC(C)CN(CC)CC` (configuration not stated), the logP stood at 5.7.

With `Nc1ccc2cc3ccccc3nc2c1CO`, the logP amounted to 1.77. For the compound `c1ccc(CSSc2ncc[nH]2)cc1`, the logP came to 3.05. As for `CCC(C)C(NC(=O)C(Cc1ccc(O)cc1)NC(=O)C(C)N)C(=O)O` (configuration not stated), the figure is -2.04; as for `COc1ccc(CCNCC(O)COc2ccc(-c3nc(C(N)=O)c[nH]3)cc2)cc1OC` (configuration not stated), 2.3; as for `Cc1sc2c(C)cc3c(C)cc(=O)oc3c2c1C`, 4.09. Under `CCC(C)C(NC(=O)C(Cc1ccccc1)NC(=O)C(CCSC)NC(=O)C(N)C(C)C)C(=O)O` (configuration not stated) (H-VMFI-OH; configuration not given here) stands -0.63; under `CCOC(=O)C(C)(Cc1cccc2ccccc12)S(=O)(=O)c1ccc([N+](=O)[O-])cc1` (configuration not stated), 4.4.

In the case of `CCCC(=NOCC)C1=C(O)CC2(CCCCC2)OC1=O`, the logP was determined as 3.62. `CC(C)C(=O)OCC(=O)C1(O)C(C)CC2C3CCC4=CC(=O)C=CC4(C)C3(F)C(O)CC21C` (configuration not stated) came in with a logP of 3.4. Regarding `COc1cccc(CNc2ncnc3nc[nH]c23)c1`, the logP came out at 2.1. In turn, `Clc1ccccc1N1CCN(CCn2nc3ccccc3n2)CC1` yielded a logP of 4. The compound `O=S(=O)(NC(=S)NC1CCCCC1)c1cnccc1NC1CCCCCC1` registered a logP of 4.71. As for `Cc1ccccc1Cc1c[nH]cn1`, the logP came out at 2.31. As for `CC(=O)NCCCCCN(O)C(=O)CCC(=O)NCCCCCN(O)C(=O)CCC(=O)NCCCCCN(O)C(C)=O`, the figure is -0.03; as for `OCC1OC(n2cnc3c(Nc4ccccc4)ncnc32)C(O)C1O` (configuration not stated), 1.28; as for `Cc1ccccc1Nc1ccncc1S(=O)(=O)NC(=NC#N)NC(C)C`, 1.67. Under `CN1CCc2ccccc2C1` stands 2.14; under `ClCC1(C(Cl)Cl)C2CC(Cl)(Cl)C1(C(Cl)Cl)CC2(Cl)Cl` (configuration not stated), 5.96.

`COc1ccc(C(=O)NN=Cc2c(CO)ccc(C)c2O)cc1` registered a logP of 3.34.

Regarding `CCOc1cc2ncnc(Nc3cccc(F)c3)c2cc1OCC`, the logP worked out at 3.71. Regarding `CC=C(C)C1(C)CC(O)=C(C(CCC)=NOCC)C(=O)O1` (configuration not stated), the logP turned out to be 3.4. Under `CCCCC(=O)C(CCCCOc1cccc(F)c1)n1cncn1` (configuration not stated) stands 3.42; under `Cc1nc2c3c(c(C(=O)Nc4ccccc4)cn2c1C)CCC(c1ccccc1)O3` (configuration not stated), 5.9; under `CC(C)C(N)C(=O)N1CCCC1C(=O)NCC(=O)NC(C(=O)O)C(C)C` (configuration not stated) (H-VPGV-OH; configuration not given here), -2.83.

For `CC(C)(C)OC(=O)NC(Cc1c[nH]c2ccccc12)C(=O)O` (configuration not stated), the logP was 2.65. Take `O=C(O)CCCCCON=C(c1cncnc1)c1cccc(C(F)(F)F)c1`: the logP was found to be 3.65. As for `CSC(=S)N1CCCCC1`, the figure is 1.7; as for `O=c1cc(-c2c(Cl)cccc2Cl)oc2ccccc12`, 3.79. In turn, `CCC(C)NC(=O)N1C(=O)N(C)CC1O` (configuration not stated) registered a logP of 1.28. Compound `Cc1c(O)c(=O)ccn1CCCO` gave a logP of -0.88.

As for `COC1C(O)CC(=O)OC(C)CC=CC=CC(=O)C(C)CC(CC=O)C1OC1OC(C)C(OC2CC(C)(O)C(OC(=O)CC(C)C)C(C)O2)C(N(C)C)C1O` (configuration not stated), the logP was determined as 1.86. Regarding `CCN(CC)CCC(=O)Nc1ccccc1`, the logP is 2.31. Under `CCCCCN(CCCCC)CC(O)c1ccccc1` (configuration not stated) stands 2.86; under `O=C(NC1CCCCCC1)NS(=O)(=O)c1cnccc1NC1CCCCCCC1`, 5.35; under `CNC(C)Cc1ccc2c(c1)OCO2` (configuration not stated), 2.15.

`COc1ccc(C(=O)N2CCN(c3ccc4c(c3)CCC(=O)N4)CC2)cc1OC`: the logP stood at 1.04. On to `N#Cc1cccc(Cn2ccnc2)c1`, for which the logP turned out to be 1.01.

Consider `O=C(O)CCCCCON=C(c1ccccc1)c1ccncn1`, for which the logP worked out at 2.66.

As to `OCc1cnc(O)nc1O`, the logP is -1.94. Turning to `C=CCC1C(=O)N(CCN(C)C)c2cccc(C(F)(F)F)c2CC1c1ccc(OC)cc1` (configuration not stated), the logP amounted to 6.6. The compound `NC(Cc1ccc(O)cc1)C(=O)NCC(=O)NC(Cc1ccccc1)C(=O)O` (stereo not drawn) (H-Tyr-Gly-Phe-OH; configuration not given here) had a logP of -1.86. As for `CCC(C)C(N)C(=O)N1CCCC1C(=O)O` (stereo not drawn) (H-Ile-Pro-OH; configuration not given here), the figure is -1.79; as for `CCOC(=O)CCCn1ccnc1[N+](=O)[O-]`, 0.69. With `Cc1ccc2c(c1)COP(=O)(OCC1C=CC(n3cc(C)c(=O)[nH]c3=O)O1)O2` (configuration not stated), the logP amounted to 0.73. For the compound `NC1CC(CO)N(c2cc3c(cc2F)c(=O)c(C(=O)O)cn3-c2ccc(F)cc2F)C1` (configuration not stated), the log partition coefficient (logP) is -0.98. Under `CCOC(=O)c1[nH]cc(-c2ccc(Cl)cc2)c1N1CCOCC1` stands 3.9; under `O=C1CCC(=O)N1c1c(Cl)cccc1Cl`, 0.57.

As for `C/C(=C\CNc1ncnc2[nH]cnc12)CO`, the logP stood at 0.6.

`Clc1ccc2c(oc3c(Cl)cc(Cl)c(Cl)c32)c1Cl` displayed a logP of 6.27. In the case of `Cc1cc2c(nc1N)[nH]c1ccccc12`, the log partition coefficient (logP) turned out to be 2.9.

For `CC(Nc1ccc([N+](=O)[O-])cc1[N+](=O)[O-])C(=O)O` (configuration not stated), the lipophilicity (logP) came out at 2.09. Under `COc1ccc(C2Cc3c(cccc3C(F)(F)F)N(CCN(C)C)C(=O)C2O)cc1` (configuration not stated) stands 4.1; under `CCOc1ccccc1NC(=O)OCCN1CCCCC1`, 3.59.
